Reference: patent publication US20120178763A1, “Method of Treating Anxious Major Depressive Disorder” (priority 2008, published 2012)
Entries after “also recorded” stand apart in the source; their conditions may differ.

Key:
rats = assay: Punished responding procedure (modified Geller-Seifter conflict test); settings: for Rate of responding, Punished responding / Rate of responding, Unpunished responding: 60 minute pretreatment
Text: In the conflict test, hungry animals were trained to lever-press for food delivery in a standard operant chamber under 2 conditions. In the first condition, referred to as the unsuppressed component, food was delivered on average after 17 lever-presses were made (also called a VR17 schedule of reinforcement). In the second condition, referred to as the suppressed component and signaled by flashing lights inside the operant chamber, food was also delivered following an average of 17 lever-presses, but electric shock was additionally delivered to the floor of the cage under a separate VR17 schedule. Daily sessions consisted of 5 alternating presentations of each component type: suppressed (3 minutes in duration) and unsuppressed (2 minutes in duration).
Compound A was dissolved in distilled deionized water/lactic acid and was administered by mouth in a volume of 1 mL/kg body weight. […] Compound A was administered on Tuesday and Friday and vehicle on Thursday. Monday and Wednesday were washout/baseline days.
Standard 2-lever operant chambers were used (Med Associates). The chambers were fitted with 2 retractable response levers and a stimulus lamp over each of the 2 levers. A pellet dispenser delivered 45 mg food pellets, (Bio Serv) to a cup located inside of the chamber below and between the 2 response levers. A lamp at the top and back of the chamber served as houselights. The grid floors of the operant chambers were interfaced to shock generators and scramblers (Med Associates). All events in the chambers were controlled and monitored by a microprocessor.
There were 2 components in the procedure: 1) an unsuppressed responding component (unpunished) with 2 minutes in duration; and 2) a suppressed responding component (punished) with 3 minutes in duration.
In the unpunished component, the houselights and both stimulus lamps over the response levers were turned on, the lever on the left-hand side of the chamber extended, and a food pellet was delivered following an average of 17 responses on the lever in the chamber (range 3 to 40 responses)—a variable-ratio 17 schedule (VR17).
In the punished component (which followed the unpunished component), the right-hand lever was extended into the chamber; the stimulus lamps and houselights were turned on and off at 1 second intervals, in succession, which served as a cue for this component; and food was available under a VR17 schedule, but was accompanied by an electrical current (0.5 second duration) that was delivered to the grid floor of the chamber under an independent VR17 schedule. The level of the current was adjusted for each individual subject until responding was reduced in the punished component to a level that was about 5% to 10% that of the unpunished component, and ranged from 0.2 mA to 0.75 mA. Unpunished and punished components were separated by 10 second time-out periods in which both response levers were retracted and all stimulus lamps turned off 2 minute unpunished and 3 minute punished components alternated until 5 of each were completed. Daily sessions always began with the unpunished responding component. […] Several doses were tested on a given test day in different subjects. Each dose, then, was tested in different sub-set of rats.
The dependent variables recorded were the rate of responding in unpunished and punished components (total responses/total time under the component) and the number of shocks delivered.

Male Sprague Dawley rats = assay: Learned helplessness procedure; type: in vivo, rat; settings: for Mean Center Crossings ± SEM: gauge of motor activity; for Mean Escape Failures ± (SEM): of 50 trials
Method: Male Sprague Dawley rats were exposed to inescapable electrical stimulation for 2 successive, daily 1 hour periods (conditioning), and then subsequently trained to avoid or escape the electrical stimulation by running to the opposite side of the test cage. […] In the training phase, when the electrical stimulation was escapable, the number of escape failures was recorded. Standard shuttle cages (20 L×16 W×21 centimeters H) fitted with a grid floor were used. The chambers could be partitioned with a closed partition or with an archway that allowed the animals to pass between the 2 sides of the cage. A computer controlled and monitored all events in the chamber.
The procedure utilized involved an induction phase and an avoidance training phase. In the induction phase, rats were enclosed in one side of the shuttle cage and electrical stimulation (2 mA, […]) was delivered to the floor of the cage every 2, 5 or 10 seconds (randomly selected for each trial) until 90 electrical stimulations were delivered. Subjects had no opportunity to escape or to avoid the electrical stimulation. Induction was conducted for 2 consecutive days. In the avoidance training phase, a partition with an arch through which the rats could pass was inserted into the center of the shuttle cages. The method employed a standard shuttle avoidance in which a compound, conditioned stimulus (a 5 second presentation of a tone and turning on of a lamp on the side of the rat containing cage) served to indicate impending presentation of electrical stimulation to the floor of the cage. The electrical stimulation was presented for a 5 second period 5 seconds after initiation of the conditioned stimulus. […] A 30 second inter-trial interval was employed. 40 minute avoidance training sessions, consisting of 50 trials were conducted on 2 consecutive days, beginning 48 hours after the final induction session.
Dosages of all compounds are reported as the free base. […] Drug was administered immediately following conditioning and training sessions and approximately 7-8 hrs after the first injection, as well as on the day in the middle of the study when no conditioning or training was conducted. In study 2, imipramine was administered 30 minutes prior to avoidance training whereas in all other circumstances, drug was administered following training.
The primary dependent variable was escape failures during avoidance training. […] T-Tests were used to compare the performance of the vehicle-administered group to drug treated groups. The no-induction group was used to gauge whether learned helplessness was established, by comparison to the vehicle treated group.

[1] = Efficacious mean plasma exposure in rodent tests of anxiolysis and antidepressant activity; type: in vivo; settings: rodents; separate tests of anxiolysis and antidepressant activity

In the case of `CCN(CC)C(=O)c1ccc([C@H](c2cccc(N)c2)N2CCN(Cc3ccc(F)cc3)CC2)cc1` [Example 2, 4-{(R)-(3-aminophenyl)[4-(4-fluorobenzyl)piperazin-1-yl]methyl}-N,N-diethylbenzamide], the “Percent of control, Punished responding” value (rats; 0.21 μmol/kg by mouth) is reported as 107 ± 19.3% of control, the “Percent of control, Unpunished responding” value (rats; 0.21 μmol/kg by mouth) is reported as 103 ± 1.63% of control and the “effect on punished responding” value (rats; 0.21 μmol/kg by mouth) is reported as “not effective”. The “Rate of responding, Punished responding” value (rats; 0.21 μmol/kg by mouth) was 0.11 ± 0.02, the “Rate of responding, Unpunished responding” value (shortened to “Rate … Unpunished responding”) (rats; 0.21 μmol/kg by mouth) was 2.06 ± 0.11 and the “Percent of control, Punished responding” value (rats; 0.63 μmol/kg by mouth) was 273 ± 39.2% of control. The “Percent of control, Unpunished responding” value (rats; 0.63 μmol/kg by mouth) was 92.1 ± 5.12% of control, the “Rate of responding, Punished responding” value (rats; 0.63 μmol/kg by mouth) was 0.24 ± 0.03 and the “Rate … Unpunished responding” value (rats; 0.63 μmol/kg by mouth) was 2.02 ± 0.14. For the same compound, the “Percent of control, Punished responding” value (rats; 2.1 μmol/kg by mouth) was 298 ± 132% of control, the “Percent of control, Unpunished responding” value (rats; 2.1 μmol/kg by mouth) was 106 ± 5.60% of control and the “Rate of responding, Punished responding” value (rats; 2.1 μmol/kg by mouth) was 0.18 ± 0.04. The “Rate … Unpunished responding” value (rats; 2.1 μmol/kg by mouth) was 1.95 ± 0.15, the “increase in punished responding (maximal efficacy)” value (rats; 2.11 μmol/kg by mouth) was “about 300%” and the “Percent of control, Punished responding” value (rats; 6.3 μmol/kg by mouth) was 207 ± 67.2% of control. The “Percent of control, Unpunished responding” value (rats; 6.3 μmol/kg by mouth) was 106 ± 2.94% of control, the “Rate of responding, Punished responding” value (rats; 6.3 μmol/kg by mouth) was 0.17 ± 0.03 and the “Rate … Unpunished responding” value (rats; 6.3 μmol/kg by mouth) was 1.92 ± 0.13. For the same compound, the “Percent of control, Punished responding” value (rats; 21.1 μmol/kg by mouth) was 272 ± 100% of control, the “Percent of control, Unpunished responding” value (rats; 21.1 μmol/kg by mouth) was 95.5 ± 4.08% of control and the “Rate of responding, Punished responding” value (rats; 21.1 μmol/kg by mouth) was 0.20 ± 0.04. For the same compound, the “Rate … Unpunished responding” value (rats; 21.1 μmol/kg by mouth) was 1.69 ± 0.12, the “effect on rate of punished responding” value (rats; 0.63, 2.11, 6.3, and 21.1 μmol/kg compared to vehicle controls) was “increased the rate of punished responding” and the “effect on unpunished responding” value (rats; at the doses tested (0.21 to 21 μmol/kg)) was “did not significantly decrease unpunished responding”. The “acute anxiolytic activity” value (rats; modified Geller-Seifter conflict model) was “has acute anxiolytic activity”, the “sedative/hyperactive properties” value (rats; observations of test subjects in their home cage) was “does not possess sedative/hyperactive properties” and the “Mean Center Crossings ± SEM” value (Male Sprague Dawley rats; 0.1 mg/kg by mouth twice a day) was 26.6 (0.85). For the same compound, the “Mean Escape Failures ± (SEM)” value (Male Sprague Dawley rats; 0.1 mg/kg by mouth twice a day) was 6.1 (3.4), the “Mean Center Crossings ± SEM” value (Male Sprague Dawley rats; 1 mg/kg by mouth twice a day) was 30.9 (2.9) and the “Mean Escape Failures ± (SEM)” value (Male Sprague Dawley rats; 1 mg/kg by mouth twice a day) was 3.1 (1.7). The “Mean Center Crossings ± SEM” value (Male Sprague Dawley rats; 10 mg/kg by mouth twice a day) was 26.9 (0.7), the “Mean Escape Failures ± (SEM)” value (Male Sprague Dawley rats; 10 mg/kg by mouth twice a day) was 4.9 (2) and the “effect on escape failures” value (Male Sprague Dawley rats; 0.1, 1 and 10 mg/kg by mouth twice a day, only the 2 higher doses significant, listed as Compound A) was “tended to decrease escape failures; also recorded: produced a decrease in escape failures”.

With `CCN(CC)C(=O)c1ccc([C@H](c2cccc(N)c2)N2CCN(Cc3ccc(F)cc3)CC2)cc1.CCN(CC)C(=O)c1ccc([C@H](c2cccc(N)c2)N2CCN(Cc3ccc(F)cc3)CC2)cc1.O=C(O)/C=C/C(=O)O.O=C(O)/C=C/C(=O)O.O=C(O)/C=C/C(=O)O` [Example 3, 4-{(R)-(3-aminophenyl)[4-(4-fluorobenzyl)piperazin-1-yl]methyl}-N,N-diethylbenzamide sesquifumarate] the “mean plasma exposures shown to be efficacious” value [1] was at least 2 ng/mL.

With `CN(C)CCCN1c2ccccc2CCc2ccccc21` [Imipramine, imipramine, reference compound] the “Mean Escape Failures ± (SEM)” value (Male Sprague Dawley rats; 20 mg/kg by mouth twice a day) was 2.3 (1).

With `CN1C(=O)CN=C(c2ccccc2)c2cc(Cl)ccc21` [diazepam, reference compound] the “level of efficacy in the conflict model (punished responding)” value (rats; 3.5 μmol/kg by mouth, data not shown) was about 250%.
